Test results taken from ChEMBL document CHEMBL1131212, “Synthesis and adrenergic activity of a new series of N-aryl dicyclopropyl ketone oxime ethers: SAR and stereochemical aspects” (J Med Chem, 1998).

Experiments:
Adrenergic receptor beta [1] = target: T1, Adrenergic receptor beta (Rattus norvegicus, UniProt P18090+P10608+P26255); assay: Inhibition of beta adrenergic receptor isolated from rat ventricle homogenates.
[2] = target: T2, Adrenergic receptor beta (Rattus norvegicus) (UniProt P18090+P10608+P26255)
[3] = target: T3, Adrenergic receptor alpha-1 (Rattus norvegicus, UniProt P15823+P23944+P43140); assay: Inhibition of alpha-1 adrenergic receptor isolated from rat ventricle homogenates
T3 sequence (P15823 whole entry): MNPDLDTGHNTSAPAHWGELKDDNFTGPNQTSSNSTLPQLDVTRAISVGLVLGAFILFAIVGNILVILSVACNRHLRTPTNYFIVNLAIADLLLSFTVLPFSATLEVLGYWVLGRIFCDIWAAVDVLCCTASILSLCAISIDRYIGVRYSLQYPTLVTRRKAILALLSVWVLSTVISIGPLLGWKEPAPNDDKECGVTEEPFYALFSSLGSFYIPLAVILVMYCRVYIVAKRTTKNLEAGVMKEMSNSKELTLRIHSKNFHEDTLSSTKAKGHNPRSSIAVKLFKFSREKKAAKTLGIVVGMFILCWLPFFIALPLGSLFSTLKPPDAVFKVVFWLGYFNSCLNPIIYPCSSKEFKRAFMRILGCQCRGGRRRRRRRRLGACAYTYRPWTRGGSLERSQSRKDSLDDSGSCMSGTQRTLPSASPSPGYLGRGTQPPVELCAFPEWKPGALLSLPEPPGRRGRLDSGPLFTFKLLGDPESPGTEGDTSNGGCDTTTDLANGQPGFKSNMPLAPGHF
T3 sequence (P23944 whole entry): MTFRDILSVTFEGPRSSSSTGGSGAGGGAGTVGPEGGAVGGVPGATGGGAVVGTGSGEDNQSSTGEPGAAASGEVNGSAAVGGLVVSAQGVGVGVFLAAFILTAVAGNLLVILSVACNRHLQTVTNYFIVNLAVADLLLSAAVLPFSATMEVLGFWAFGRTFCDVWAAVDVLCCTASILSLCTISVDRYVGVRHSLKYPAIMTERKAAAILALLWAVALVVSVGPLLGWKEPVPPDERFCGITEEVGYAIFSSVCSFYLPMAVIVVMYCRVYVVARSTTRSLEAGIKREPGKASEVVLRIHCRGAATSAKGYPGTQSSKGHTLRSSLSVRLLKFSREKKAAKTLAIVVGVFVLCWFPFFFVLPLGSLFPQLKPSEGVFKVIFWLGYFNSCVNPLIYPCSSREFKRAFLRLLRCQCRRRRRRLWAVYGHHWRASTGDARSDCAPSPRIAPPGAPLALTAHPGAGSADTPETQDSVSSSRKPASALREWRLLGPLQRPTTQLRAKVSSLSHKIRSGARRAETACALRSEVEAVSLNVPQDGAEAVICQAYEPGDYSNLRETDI
T3 sequence (P43140 whole entry): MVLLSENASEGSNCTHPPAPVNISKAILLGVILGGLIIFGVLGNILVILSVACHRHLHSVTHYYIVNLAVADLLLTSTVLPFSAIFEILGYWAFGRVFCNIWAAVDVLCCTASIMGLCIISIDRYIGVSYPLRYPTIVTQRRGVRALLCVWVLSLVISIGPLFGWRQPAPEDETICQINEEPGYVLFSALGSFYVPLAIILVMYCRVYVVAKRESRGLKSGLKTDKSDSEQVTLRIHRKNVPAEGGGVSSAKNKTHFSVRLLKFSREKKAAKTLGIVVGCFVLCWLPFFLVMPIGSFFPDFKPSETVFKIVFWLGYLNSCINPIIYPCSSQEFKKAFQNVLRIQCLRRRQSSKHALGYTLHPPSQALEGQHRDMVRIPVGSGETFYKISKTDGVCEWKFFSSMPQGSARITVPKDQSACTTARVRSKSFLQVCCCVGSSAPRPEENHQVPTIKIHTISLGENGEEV

Cavia porcellus [4] = species on record: Cavia porcellus; assay: Ionotropic effect in electrically driven left atrial preparation (Atria isolated from guinea pig) and is expressed in pA2.; conditions: Cardiac atrium, read-out: pA2 (converted)
Cavia porcellus [5] = species on record: Cavia porcellus; assay: Chronotropic effect studied in right atria isolated from guinea pig and is expressed in pA2.; conditions: read-out: pA2 (converted)
Rattus norvegicus [6] = species on record: Rattus norvegicus; assay: The compound was tested for percent increase in heart rate with respect to that measured after isoprenaline in 5-10 animals and showing significant increase (p <= 0.05) with respect to baseline values (293 +/- 7 to 310 +/- 5 […]).; type: functional
Rattus norvegicus [7] = assay: Tested for MED (smallest dose giving maximum effect) evaluated by dose-response curve, from 0.1 to 5 mg/kg in 5-10 animals on iv administration.; type: functional; conditions: dose mg/kg 0.1-5
Rattus norvegicus [8] = species on record: Rattus norvegicus; assay: The compound was tested for percent increase in heart rate with respect to that measured after isoprenaline in 5-10 animals.; type: functional
[9] = target: T2, Adrenergic receptor beta (Rattus norvegicus); assay: In vitro inhibitory specificity for Beta adrenergic receptor was evaluated; ND=not determined; type: protein assay
Adrenergic receptor beta [10] = target: T1, Adrenergic receptor beta; assay: The compound was tested for the concentration to inhibit 50% of Beta adrenergic receptor isolated from rat ventricle homogenates; ND=not determined
[11] = target: Beta-1 adrenergic receptor (Cavia porcellus); assay: Beta-1 adrenergic receptor-Antagonism in isolated guinea pig atria. ( for R-enantiomer); conditions: read-out: pA2 app (converted)
Adrenergic receptor beta [12] = target: T1, Adrenergic receptor beta; assay: The compound was tested for the concentration to inhibit 50% of Beta adrenergic receptor isolated from rat ventricle homogenates.; type: functional

SMILES | IC50 (Adrenergic receptor beta [1]) | Specificity [2] | IC50 [3] | Kb (Cavia porcellus [4]) | Kb (Cavia porcellus [5]) | Increase (Rattus norvegicus [6]) | MED (Rattus norvegicus [7]) | Increase (Rattus norvegicus [8]) | Specificity [9] | IC50 (Adrenergic receptor beta [10]) | Kb [11] | IC50 (Adrenergic receptor beta [12])
O=C(O)c1ccc(NCC(O)CON=C(C2CC2)C2CC2)cc1 (stereo not drawn) | 0.01 µM | 3570 | 37.3 µM | 0.631 µM | 0.1 µM | 65% | 2.3 µmol/kg | – | – | – | – | –
OC(CNc1ccccc1)CON=C(C1CC1)C1CC1 (stereo not drawn) | 0.0033 µM | 3940 | 13 µM | 0.126 µM | 0.0398 µM | – | 2.7 µmol/kg | 10% | – | – | – | –
OC(CNc1ccc(-c2ccccc2)cc1)CON=C(C1CC1)C1CC1 (stereo not drawn) | 0.0045 µM | 690 | 3.1 µM | 0.0398 µM | 0.01 µM | 70% | 1 µmol/kg | – | – | – | – | –
Oc1ccc(NCC(O)CON=C(C2CC2)C2CC2)cc1 (stereo not drawn) | – | – | 28.3 µM | 0.2 µM | 0.0794 µM | – | 3.1 µmol/kg | 10% | 2730 | 0.0104 µM | – | –
Cc1cccc(NCC(O)CON=C(C2CC2)C2CC2)c1 (stereo not drawn) | 0.501 µM | > 200 | > 100 µM | 0.126 µM | 0.1 µM | 42% | 9.2 µmol/kg | – | – | – | – | –
Cc1cccc(NCC(O)CON=C(C2CC2)C2CC2)n1 (stereo not drawn) | – | – | – | – | 10 µM | – | – | – | – | – | – | –
Cc1ccc(NCC(O)CON=C(C2CC2)C2CC2)cc1 (stereo not drawn) | 0.0076 µM | 1970 | 15 µM | 0.01 µM | 0.0126 µM | 64% | 2.5 µmol/kg | – | – | – | 0.0126 µM | –
OC(CNc1ccc(F)cc1)CON=C(C1CC1)C1CC1 (stereo not drawn) | 0.0124 µM | 2120 | 26.2 µM | 1.26 µM | 0.631 µM | 74% | 2.4 µmol/kg | – | – | – | – | –
CC(C)(N)Cc1ccc(NCC(O)CON=C(C2CC2)C2CC2)cc1 (stereo not drawn) | – | – | – | – | 0.501 µM | – | – | – | – | – | – | –
Cc1ccnc(NCC(O)CON=C(C2CC2)C2CC2)c1 (stereo not drawn) | 0.0239 µM | 640 | 15.3 µM | 0.0794 µM | 0.0316 µM | – | 2.6 µmol/kg | 0% | – | – | – | –
OC(CNc1cccc(I)c1)CON=C(C1CC1)C1CC1 (stereo not drawn) | 0.63 µM | > 160 | > 100 µM | 3.16 µM | 5.01 µM | 42% | 7.8 µmol/kg | – | – | – | – | –
O=[N+]([O-])c1ccc(NCC(O)CON=C(C2CC2)C2CC2)cc1 (stereo not drawn) | 0.0079 µM | 2400 | 19 µM | 0.251 µM | 0.1 µM | – | 1.8 µmol/kg | 10% | – | – | – | –
CN(CC(O)CON=C(C1CC1)C1CC1)c1ccccc1 (stereo not drawn) | – | – | – | – | 794 µM | – | – | – | – | – | – | –
OC(CNc1ccc(Cl)cc1)CON=C(C1CC1)C1CC1 (stereo not drawn) | 0.0114 µM | 1640 | 18.7 µM | 0.126 µM | 0.0398 µM | 47% | 2.1 µmol/kg | – | – | – | – | –
OC(CNc1ccccc1-c1ccccc1)CON=C(C1CC1)C1CC1 (stereo not drawn) | 0.998 µM | > 100 | > 100 µM | 25.1 µM | 100 µM | – | > 12.9 µmol/kg | 0% | – | – | – | –
OC(CNc1ccc(I)cc1)CON=C(C1CC1)C1CC1 (stereo not drawn) | 0.0041 µM | 6700 | 27.5 µM | 0.0631 µM | 0.0158 µM | 64% | 1.6 µmol/kg | – | – | – | – | –
Cc1ccc(NCC(O)CON=C(C2CC2)C2CC2)nc1 (stereo not drawn) | – | – | – | – | 25.1 µM | – | – | – | – | – | – | –
OC(CNc1ccc(Br)cc1)CON=C(C1CC1)C1CC1 (stereo not drawn) | 0.0041 µM | 4630 | 19 µM | 0.1 µM | 0.02 µM | – | 2.1 µmol/kg | 10% | – | – | – | –
OC(CNc1nc2ccccc2s1)CON=C(C1CC1)C1CC1 (stereo not drawn) | 0.0034 µM | > 29400 | > 100 µM | 0.0251 µM | 0.0158 µM | – | 4.1 µmol/kg | 10% | – | – | – | –
OC(CNc1ccncc1)CON=C(C1CC1)C1CC1 (stereo not drawn) | 0.0323 µM | 2240 | 72.3 µM | 0.251 µM | 0.0631 µM | – | 3.7 µmol/kg | 0% | – | – | – | –
CC(C)NCC(O)COc1cccc2ccccc12 (stereo not drawn) [PROPRANOLOL] | – | – | – | – | – | – | 3 µmol/kg | 0% | – | – | – | –
CCOC(=O)c1ccc(NCC(O)CON=C(C2CC2)C2CC2)cc1 (stereo not drawn) | 0.0128 µM | 7430 | 95.1 µM | 0.251 µM | 0.0794 µM | – | 2.4 µmol/kg | 10% | – | – | – | –
CCCCc1ccc(NCC(O)CON=C(C2CC2)C2CC2)cc1 (stereo not drawn) | 0.007 µM | 4390 | 30.7 µM | 0.251 µM | 0.0794 µM | – | 2.7 µmol/kg | 10% | – | – | – | –
OC(CNc1nc2ccccc2[nH]1)CON=C(C1CC1)C1CC1 (stereo not drawn) | 0.0132 µM | > 7580 | > 100 µM | 0.1 µM | 0.0631 µM | – | 2 µmol/kg | 10% | – | – | – | –
OC(CNc1ccccn1)CON=C(C1CC1)C1CC1 (stereo not drawn) | 0.0356 µM | 1020 | 36.4 µM | 0.0631 µM | 0.0794 µM | – | 4.4 µmol/kg | 0% | – | – | – | –
Cc1ccccc1NCC(O)CON=C(C1CC1)C1CC1 (stereo not drawn) | 0.013 µM | 1690 | 22 µM | 0.251 µM | 0.126 µM | 37% | 5.3 µmol/kg | – | – | – | – | –
CC(C)(Cc1ccc(NCC(O)CON=C(C2CC2)C2CC2)cc1)[N+](=O)[O-] (stereo not drawn) | – | 3700 | 12.6 µM | 0.0794 µM | 0.02 µM | – | 2.4 µmol/kg | 10% | – | – | – | 0.0034 µM
OC(CNc1ccccc1I)CON=C(C1CC1)C1CC1 (stereo not drawn) | 0.108 µM | 490 | 53 µM | 2.51 µM | 1.26 µM | – | 5.7 µmol/kg | 10% | – | – | – | –
OC(CNc1ccc(C(F)(F)F)cc1)CON=C(C1CC1)C1CC1 (stereo not drawn) | 0.0138 µM | > 7250 | > 100 µM | 0.126 µM | 0.0631 µM | 47% | 2.2 µmol/kg | – | – | – | – | –
CC(C)(C)c1ccc(NCC(O)CON=C(C2CC2)C2CC2)cc1 (stereo not drawn) | 0.0034 µM | 20800 | 70.8 µM | 0.0501 µM | 0.0126 µM | 44% | 2 µmol/kg | – | – | – | 0.011 µM | –
